Assay results taken from patent publication US20060079453A1, “Hla binding peptides and their uses” (priority 2002, published 2006).
No end group written: not given here.

Columns and labels:
Assay in all cases: biochemical
Format in all cases: binding
HLA-DR DRB1*0101 (DR1) = HLA-DR DRB1*0101 (DR1) (Homo sapiens, UniProt P01903+P01911, A100R/D57E/F55L/F60I/F76Y/I96L/L162R/M171V/P40L/Q125E/R42F/V115G/Y59C); conditions: DRB1 *0101
HLA-DR DRB1*0301 (DR3) = HLA-DR DRB1*0301 (DR3) (Homo sapiens, UniProt P01903+P01911, A100K/A102G/A103R/A169T/F55Y/I96L/K41T/L162R/M171V/P40S/Q125H/Q178H/Q39Y/R42S/S66N/T106N/T262R/W38E/Y61H)
HLA-DR DRB1*0401 (DR4) = HLA-DR DRB1*0401 (DR4) (Homo sapiens, UniProt P01903+P01911, A100K/A169T/F76Y/I96L/K127E/L162R/M171V/N62H/P40V/Q125Y/R42H/S133A/S149N/S66Y/V115G/V209L/W38E); conditions: DRB1 *0401
HLA-DR DRB1*0701 (DR7) = HLA-DR DRB1*0701 (DR7) (Homo sapiens, UniProt P01903+P01911, A100R/A102G/A103Q/D57E/D86V/E43K/F76Y/K127E/L162R/M171V/P40G/Q125H/Q99D/R33Q/R42Y/R54Q/S133A/S66F/T210M/V115G/Y107V/Y59L/Y89S); conditions: DRB1 *0701
HLA-DR DRB1*0802 (DR8) = HLA-DR DRB1*0802 (DR8) (Homo sapiens, UniProt P01903+P01911, A100R/A103L/A169T/F76Y/H45Y/I96F/K41T/L162R/M171V/P40S/Q125H/Q178H/Q39Y/Q99D/R218S/R42G/S66Y/V115G/W38E)
HLA-DR DRB1*0901 (DR9) = HLA-DR DRB1*0901 (DR9) (Homo sapiens, UniProt P01903+P01911, A100R/A103E/D57H/D86V/F55Y/F60I/F76Y/I96F/K127E/L162R/M171V/P40D/Q125H/Q99R/R33Q/R42F/S133A/S66N/T210M/V115G/W38K/Y107V/Y59G/Y89S); conditions: DRB1 *0901
HLA-DR DRB1*1101 (DR11) = HLA-DR DRB1*1101 (DR11) (Homo sapiens, UniProt P01903+P01911, A100R/A169T/A87E/I96F/K41T/L162R/M171V/P40S/Q125H/Q178H/Q39Y/Q99D/R42S/S66Y/T262R/V115G/W38E); conditions: DRB1 *1101
HLA-DR DRB1*1302 (DR13) = HLA-DR DRB1*1302 (DR13) (Homo sapiens, UniProt P01903+P01911, A100E/A169T/K41T/L162R/M171V/P40S/Q125H/Q178H/Q39Y/Q99D/R42S/S66N/T262R/V115G/W38E/Y61H); conditions: DRBI *1302
HLA-DR DRB1*1501 (DR15) = HLA-DR DRB1*1501 (DR15) (Homo sapiens, UniProt P01903+P01911); conditions: DRBI *1501
HLA-DR DRB3*0101 (DR52) = HLA-DR DRB3*0101 (DR52) (Homo sapiens, UniProt P01903+P79483)
HLA-DR DRB4*0101 (DR53) = HLA-DR DRB4*0101 (DR53) (Homo sapiens, UniProt P01903+P13762, G164S); conditions: DRB4 *0101
HLA-DR DRB5*0101 (DR51) = HLA-DR DRB5*0101 (DR51) (Homo sapiens, UniProt P01903+Q30154); conditions: DRB5 *0101

Chain of HLA-DR DRB1*1101 (DR11) (P01903 26-254 limits assumed, other chains not shown): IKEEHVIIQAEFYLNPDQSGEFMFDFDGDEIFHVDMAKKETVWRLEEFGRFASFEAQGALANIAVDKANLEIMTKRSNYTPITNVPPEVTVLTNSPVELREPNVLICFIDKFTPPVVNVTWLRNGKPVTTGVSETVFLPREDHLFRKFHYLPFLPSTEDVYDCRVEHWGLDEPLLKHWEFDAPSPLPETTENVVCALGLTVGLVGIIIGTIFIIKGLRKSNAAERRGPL
Chain of HLA-DR DRB1*1302 (DR13) (P01903 26-254 limits assumed, other chains not shown): as above
Chain of HLA-DR DRB1*0301 (DR3) (P01903 26-254 limits assumed, other chains not shown): as above

| Compound | IC50 (HLA-DR DRB1*0101 (DR1)) [nM] | IC50 (HLA-DR DRB1*0301 (DR3)) [nM] | IC50 (HLA-DR DRB1*0401 (DR4)) [nM] | IC50 (HLA-DR DRB1*0701 (DR7)) [nM] | IC50 (HLA-DR DRB1*0802 (DR8)) [nM] | IC50 (HLA-DR DRB1*0901 (DR9)) [nM] | IC50 (HLA-DR DRB1*1101 (DR11)) [nM] | IC50 (HLA-DR DRB1*1302 (DR13)) [nM] | IC50 (HLA-DR DRB1*1501 (DR15)) [nM] | IC50 (HLA-DR DRB3*0101 (DR52)) [nM] | IC50 (HLA-DR DRB4*0101 (DR53)) [nM] | IC50 (HLA-DR DRB5*0101 (DR51)) [nM] |
| --- | --- | --- | --- | --- | --- | --- | --- | --- | --- | --- | --- | --- |
| HPQWVLTAAHCLKKN | 22 | 1100 | 875 | 563 | 1690 | 822 | 981 | 483 | 1220 | 8110 | 1110 | 11 |
| CC[C@H](C)[C@H](NC(=O)[C@@H]1CCCN1C(=O)[C@@H](N)CC(N)=O)C(=O)N[C@@H](CC(C)C)C(=O)N[C@@H](CC(C)C)C(=O)N[C@@H](Cc1c[nH]c2ccccc12)C(=O)N[C@@H](CCC(N)=O)C(=O)N1CCC[C@H]1C(=O)N[C@H](C(=O)N1CCC[C@H]1C(=O)N[C@H](C(=O)N[C@@H](Cc1c[nH]cn1)C(=O)N[C@H](C(=O)N[C@H](C(=O)N1CCC[C@H]1C(=O)O)C(C)C)[C@@H](C)O)C(C)C)[C@@H](C)CC | 31 | > 81800 | 206 | 41 | 13000 | 575 | 599 | 250 | 4.6 | > 8830 | 67 | 25000 |
| CC[C@H](C)[C@H](NC(=O)[C@H](CO)NC(=O)[C@H](CO)NC(=O)[C@H](CC(=O)O)NC(=O)[C@H](C)NC(=O)[C@H](CC(N)=O)NC(=O)[C@@H](NC(=O)[C@H](Cc1ccc(O)cc1)NC(=O)[C@H](C)NC(=O)[C@@H](N)C(C)C)[C@@H](C)CC)C(=O)N[C@@H](CCC(=O)O)C(=O)NCC(=O)N[C@@H](CC(N)=O)C(=O)N[C@@H](Cc1ccc(O)cc1)C(=O)N[C@H](C(=O)O)[C@@H](C)O | 4720 | 531 | 411 | 9740 | 106000 | 5470 | > 18900 | 2150 | > 3490 | 471 | 841 | > 37800 |
| CSCC[C@H](NC(=O)[C@@H]1CCCN1C(=O)[C@@H](N)CC(=O)O)C(=O)N[C@@H](Cc1ccccc1)C(=O)N[C@@H](CCCCN)C(=O)N[C@@H](Cc1ccc(O)cc1)C(=O)N[C@@H](Cc1c[nH]cn1)C(=O)N[C@@H](CC(C)C)C(=O)N[C@H](C(=O)N[C@H](C(=O)N[C@@H](C)C(=O)N[C@@H](CCC(N)=O)C(=O)N[C@H](C(=O)N[C@@H](CCCNC(=N)N)C(=O)NCC(=O)O)C(C)C)C(C)C)[C@@H](C)O | 5.7 | > 75000 | 9.1 | 168 | 43 | 258 | 69 | 699 | 230 | 7300 | 467 | 11 |
| CC[C@H](C)[C@H](NC(=O)[C@H](CO)NC(=O)[C@H](CC(N)=O)NC(=O)[C@H](C)NC(=O)[C@H](CC(C)C)NC(=O)[C@H](CCC(=O)O)NC(=O)[C@H](Cc1ccccc1)NC(=O)[C@@H](NC(=O)[C@H](CCSC)NC(=O)CN)C(C)C)C(=O)N[C@H](C(=O)N[C@@H](CC(C)C)C(=O)N1CCC[C@H]1C(=O)N[C@@H](Cc1ccccc1)C(=O)N[C@@H](CC(=O)O)C(=O)O)C(C)C | 15 | 4600 | 230 | 30 | 5000 | 81 | > 50000 | 12 | 83 | 234 | 4150 | 903 |
| CC[C@H](C)[C@H](NC(=O)[C@H](CS)NC(=O)[C@H](Cc1c[nH]cn1)NC(=O)[C@H](C)N)C(=O)N[C@@H](CCCNC(=N)N)C(=O)N[C@@H](CC(N)=O)C(=O)N[C@@H](CCCCN)C(=O)N[C@@H](CO)C(=O)N[C@H](C(=O)N[C@H](C(=O)N[C@@H](CC(C)C)C(=O)N[C@@H](CC(C)C)C(=O)NCC(=O)N[C@@H](CCCNC(=N)N)C(=O)N[C@@H](Cc1c[nH]cn1)C(=O)O)[C@@H](C)CC)C(C)C | 578 | 29700 | 69 | 2570 | 104 | 715 | 93 | 75 | 88 | 4750 | 8.7 | 3630 |
| CC[C@H](C)[C@H](NC(=O)[C@H](Cc1c[nH]c2ccccc12)NC(=O)[C@H](CCCCN)NC(=O)[C@H](CCCNC(=N)N)NC(=O)[C@H](Cc1ccc(O)cc1)NC(=O)[C@H](Cc1c[nH]cn1)NC(=O)[C@@H](NC(=O)[C@@H](NC(=O)[C@H](CCCCN)NC(=O)[C@@H](NC(=O)[C@H](Cc1ccc(O)cc1)NC(=O)[C@H](CC(C)C)NC(=O)[C@H](CO)NC(=O)[C@@H]1CCCN1C(=O)[C@@H](N)CCCNC(=N)N)[C@@H](C)O)C(C)C)C(C)C)C(=O)O | 6040 | 53800 | 339 | 652 | 39 | 5480 | 350 | 4180 | 717 | 2980 | 4900 | 13 |
| YLVTGERGFFYTPKT | 779 | 517 | > 20500 | 7740 | 29200 | 6300 | 7620 | 2100 | > 25600 | 13700 | 20700 | > 28400 |
| CC[C@H](C)[C@H](NC(=O)[C@H](CCCCN)NC(=O)[C@H](CCSC)NC(=O)[C@H](CC(=O)O)NC(=O)[C@H](CCCNC(=N)N)NC(=O)[C@H](CCC(=O)O)NC(=O)[C@H](CC(C)C)NC(=O)[C@H](CCCCN)NC(=O)[C@H](Cc1ccccc1)NC(=O)[C@@H](N)Cc1ccccc1)C(=O)N[C@@H](CC(N)=O)C(=O)N[C@@H](CS)C(=O)N[C@@H](CO)C(=O)NCC(=O)N[C@@H](CCCCN)C(=O)O | 4420 | 121 | 483 | > 23100 | 8110 | > 52300 | 9690 | 382 | > 3490 | 4920 | 98 | 3800 |
